Measurements from the OPERA property sets (Mansouri et al. 2018).

In the case of `O=Cc1ccc([N+](=O)[O-])o1`, the logP is reported as 1.01. `CCN(CC)C(=S)SSC(=S)N(CC)CC` showed a logP of 3.88. Compound `C#Cc1ccccc1` has a logP of 2.53. In the case of `CCN(C(=O)SCc1ccccc1)C(C)C(C)C` (centres undefined), the logP is reported as 4.6. `COP(=S)(OC)Oc1ccc([N+](=O)[O-])c(C)c1` showed a logP of 3.3. Work on `CC(=O)c1ccccc1NCC#N` yielded a logP of 1.58. Compound `COc1ccc2ncccc2c1` has a logP of 2.2. With `CC(C)Nc1nc(NC(C)(C)C)nc(SC(F)F)n1` the logP was 4.7. Work on `COc1ccc(OC(C)=O)cc1` yielded a logP of 1.54. `COc1cccc(OC)c1C(=O)N[C@@H]1C(=O)N2[C@@H]1SC(C)(C)[C@@H]2C(=O)O` gave a logP of 1.22. For `Cc1nnc(SCC2=C(C(=O)O)N3C(=O)[C@@H](NC(=O)Cn4cnnn4)[C@H]3SC2)s1`, the logP was -0.58. `Nc1ccccc1Br` gave a logP of 2.11. With `CCCCCN` the logP was 1.49. `c1ccc(COCc2ccccc2)cc1` gave a logP of 3.31. `c1ccc2nc(-c3ccc4ccccc4n3)ccc2c1` showed a logP of 4.31. Compound `O=c1ccnc(S)[nH]1` has a logP of -0.28. With `O=NN(CCCl)C(=O)NC1C(O)CCCC1O` (centres undefined) the logP was 0.16. Work on `NCCCC[C@H](N)C(=O)O` yielded a logP of -3.05. In the case of `CCOC(=O)C(=O)Nc1ccccc1`, the logP is reported as 1.48. `C[C@@H](O)c1ccccc1` gave a logP of 1.42. Work on `NCCCCCC(=O)O` yielded a logP of -2.95. `Cc1ccc(NS(=O)(=O)C(F)(F)F)cc1` gave a logP of 3.6. For `NCCc1c[nH]c2ccc(O)cc12`, the logP was 0.21. With `O=[N+]([O-])c1cccc(Br)c1` the logP was 2.64. Work on `CC(Cl)C(=O)NC(CO)C(O)c1ccc([N+](=O)[O-])cc1` (centres undefined) yielded a logP of 0.98. Compound `Cc1[nH]c(=O)n(C(C)(C)C)c(=O)c1Cl` has a logP of 1.89. With `CCC(=O)OC1(C(C)=O)C(C)CC2C3CCC4=CC(=O)C=CC4(C)C3(F)C(O)CC21C` (centres undefined) the logP was 3.09. `CS(=O)(=O)c1cccc([N+](=O)[O-])c1` showed a logP of 0.5. With `COC(=O)c1ccc(C(=O)OC)cc1` the logP was 2.25. With `CCCCN` the logP was 0.97. Compound `COc1ccc2c(c1)C13CCN4CC5=CCOC6CC(=O)N2C1C6C5CC43` (centres undefined) has a logP of 1.85. Compound `O=C(Nc1ncnc2c1ncn2[C@@H]1O[C@H](CO)[C@@H](O)[C@H]1O)c1ccccc1` has a logP of -0.1. With `O=NN(CCCl)C(=O)NC1C(O)OC(CO)C(O)C1O` (centres undefined) the logP was -1.02. Compound `ClC1=C(Cl)C(Cl)(Cl)C(Cl)=C1Cl` has a logP of 5.04. Compound `c1ccc(-c2cccc(-c3ccccc3)n2)cc1` has a logP of 4.82. With `COC(COC(N)=O)C1=C(N2CC2)C(=O)C(C)=C(N2CC2)C1=O` (centres undefined) the logP was -0.15. In the case of `COc1ccc(C=O)cc1C`, the logP is reported as 2.23. For `CCOP(=O)(OCC)SCn1nnc2ccccc2c1=O`, the logP was 1.63. For `CNS(=O)(=O)c1ccccc1`, the logP was 0.92. In the case of `ClCC#CCCl`, the logP is reported as 2.01. With `Cc1[nH]cnc1CSCCNC(=N)NCCSCc1nc[nH]c1C` the logP was 1.34. In the case of `CC(C)(C)NC(=O)[C@H]1CC[C@H]2[C@@H]3CC[C@H]4NC(=O)C=C[C@]4(C)[C@H]3CC[C@]12C`, the logP is reported as 3.03. With `CCn1cnc([N+](=O)[O-])n1` the logP was -0.19. With `CCCCC1(CC)C(=O)NC(=O)NC1=O` the logP was 1.73. Work on `Cc1ccc2cc(C)c(C)cc2c1` yielded a logP of 4.73. Compound `COC(=O)c1cccc(C(=O)O)c1` has a logP of 1.83. Compound `Clc1cnc(Cl)c(Cl)c1` has a logP of 3.11. Compound `COc1ccccc1C` has a logP of 2.74. `CCCC(O)C(C(=O)O)c1ccc(-c2ccccc2)cc1` (centres undefined) gave a logP of 3.75. `Cc1cc(Cl)ccc1O` gave a logP of 2.78. In the case of `CC(C)N(CCC(C(N)=O)c1ccc(-c2ccccc2)cc1)C(C)C` (centres undefined), the logP is reported as 3.66. In the case of `O=C(O)C1CC1`, the logP is reported as 0.63. With `S=C1CCCO1` the logP was 0.6. `CN(C)c1cccc2c(S(N)(=O)=O)cccc12` gave a logP of 2.01. `COC(=O)CCCc1ccccc1` gave a logP of 2.77. `CNC(=O)NC` showed a logP of -0.49. `Oc1ccccc1O` gave a logP of 0.88. `O=C(O)c1ccccc1Nc1cccc(C(F)(F)F)c1` gave a logP of 5.25. `CP(C)c1ccccc1` gave a logP of 2.57. With `Nc1ccccc1[N+](=O)[O-]` the logP was 1.85. In the case of `CC(=O)OCc1ccc(Cl)cc1`, the logP is reported as 2.59. With `Nc1cc(C(F)(F)F)ccc1Cl` the logP was 3.06. With `O=C(O)c1cc([N+](=O)[O-])c(Cl)c([N+](=O)[O-])c1` the logP was 2.5. In the case of `Nc1nc2nn[nH]c2c(=O)[nH]1`, the logP is reported as -0.71. `CC1(C)O[C@@H]2C[C@H]3[C@@H]4CCC5=CC(=O)C=C[C@]5(C)[C@@]4(F)[C@@H](O)C[C@]3(C)[C@]2(C(=O)CO)O1` showed a logP of 2.53. In the case of `O=C(O)CN1CCCCC1`, the logP is reported as -1.05. With `NCCCc1cccnc1` the logP was 0.44. Compound `COc1cc(N)c(Cl)cc1C(=O)NC1CCN(Cc2ccccc2)CC1` has a logP of 3.58. In the case of `CCCOC(=O)c1ccc(N)cc1`, the logP is reported as 2.43. For `c1ccnnc1`, the logP was -0.72. `CN(C)C(N(C)C)=S(I)c1ccc(Br)cc1` (centres undefined) gave a logP of 0.06. Compound `CCCNC(=O)c1cccnc1` has a logP of 0.66. In the case of `O=[N+]([O-])c1cccc(F)c1`, the logP is reported as 1.9. `[O-][n+]1cccc2ccccc21` showed a logP of 0.36. Work on `COC(=O)c1ccccc1N=NN(C)C` yielded a logP of 2.51. For `CCc1cc([N+](=O)[O-])cc([N+](=O)[O-])c1O`, the logP was 2.67. Compound `CCCCC[C@H](O)/C=C/[C@H]1[C@H](O)CC(=O)[C@@H]1C/C=C\CCCC(=O)O` has a logP of 2.82. For `C=CC=O`, the logP was -0.01. With `O=[N+]([O-])C=Cc1cccc([N+](=O)[O-])c1` the logP was 1.82. For `CON(C)C(=O)Nc1ccc(C(C)=O)cc1`, the logP was 1.22. In the case of `C1CCc2nnnn2CC1`, the logP is reported as 0.14. Compound `Oc1cccc(Br)c1` has a logP of 2.63. For `CCCCC(N)Cc1ccccc1` (centres undefined), the logP was 3.36. For `O=C(O)Cn1nc2ccccc2n1`, the logP was -1.64. For `COCc1ccccc1NC(=O)OCCN1CCCCC1`, the logP was 2.2. `O=c1cc[nH]c2cc(C(F)(F)F)ccc12` gave a logP of 2.05. Compound `O=C1CC(=O)c2ccccc21` has a logP of 0.61. `CCC(=O)c1ccc(O)cc1` showed a logP of 2.03. Compound `O=C(O)c1ccc(O)c(O)c1` has a logP of 0.86. `O=S(=O)(Nc1ccc(Cl)cc1)C(F)F` showed a logP of 2.84. With `NC(=O)CCCCOC(=O)c1ccccc1` the logP was 1.39. In the case of `CC#CC#CC`, the logP is reported as 2.24. Work on `CCCCCCOC(=O)n1cnc(CC(NC(=O)C2CCC(=O)N2)C(=O)N2CCCC2C(N)=O)c1` (centres undefined) yielded a logP of 0.71. For `Clc1ccccc1-c1c(Cl)cccc1Cl`, the logP was 5.48. Compound `Cc1cccc(C(N)=O)c1` has a logP of 1.18. With `CCC(=O)Nc1ccnc2cc(Cl)ccc12` the logP was 2.73. In the case of `Oc1ccc(O)cc1`, the logP is reported as 0.59. With `O=C(O)C(Cl)(Cl)Cl` the logP was 1.33. With `COc1c(Cl)ccc(Cl)c1C(=O)O` the logP was 2.21. In the case of `NNC(=O)c1ccccc1N`, the logP is reported as -0.18. `O=[N+]([O-])c1ccc(O)c([N+](=O)[O-])c1` showed a logP of 1.67. `CCOC(=O)c1cc2ccc(CC)cc2nn1` showed a logP of 2.31. Compound `CN(C)C(N(C)C)=S(I)c1cccc(I)c1` (centres undefined) has a logP of 0.29. `CC[N+](=O)[O-]` gave a logP of 0.18. `CCCCCCC1CCC(=O)O1` (centres undefined) gave a logP of 2.72. `CCCCn1cnc2c(NC(C)=O)ncnc21` gave a logP of 0.55. `C=C1C(=O)OC2CC(C)C3CC(=O)C(CC12)C1(C3)C(=O)OC2CC(C)C3C=CC(=O)C3C(C)(O)C21` (centres undefined) showed a logP of 1.66. In the case of `CCOS(=O)(=O)c1ccc(C)cc1`, the logP is reported as 1.81. Compound `CN(C)C1=CC(=O)c2ccccc2C1=O` has a logP of 1.9. For `CN(C)CCC(c1ccc(Cl)cc1)c1ccccn1` (centres undefined), the logP was 3.38. In the case of `Cc1ccc2ccccc2n1`, the logP is reported as 2.59. In the case of `O=[N+]([O-])C=Cc1ccco1`, the logP is reported as 1.56. For `CCCC(=O)OCC1CCC(n2cnc3c(=O)[nH]cnc32)O1` (centres undefined), the logP was 0.11. With `CC(=O)OC[C@H]1O[C@@H](n2ncc(=O)[nH]c2=O)[C@H](OC(C)=O)[C@@H]1OC(C)=O` the logP was -0.2.
